In paper PMC10700673, “A Smart Intracellular Self‐Assembling Bioorthogonal Raman Active Nanoprobe for Targeted Tumor Imaging” (Advanced Science, 2023):

Target: T1, Recombinant human legumain (Homo sapiens, UniProt Q99538)
T1 construct: purchased R&D systems
T1 sequence (Q99538 18-433): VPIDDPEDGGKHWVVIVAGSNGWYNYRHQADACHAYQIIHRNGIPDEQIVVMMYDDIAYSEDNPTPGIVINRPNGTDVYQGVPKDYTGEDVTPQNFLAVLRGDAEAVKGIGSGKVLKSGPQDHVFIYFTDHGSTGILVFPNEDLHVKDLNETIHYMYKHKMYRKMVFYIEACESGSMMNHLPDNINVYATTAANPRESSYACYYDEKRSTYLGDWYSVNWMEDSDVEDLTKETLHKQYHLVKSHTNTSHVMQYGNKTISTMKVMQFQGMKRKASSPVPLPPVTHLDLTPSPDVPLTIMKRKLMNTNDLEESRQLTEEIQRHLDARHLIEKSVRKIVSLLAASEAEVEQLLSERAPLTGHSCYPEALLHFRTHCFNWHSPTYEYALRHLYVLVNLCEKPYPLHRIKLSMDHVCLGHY
Assay: legumain- and GSH-triggered cleavage and condensation in solution (Raman, HPLC, MALDI)
Type: biochemical
Settings: 37 °C
Description: The detailed synthetic procedures and characterization of the nanoSABER probe are given in Scheme S1 and Figures S1 and S2 (Supporting Information), respectively. The Raman signatures of nanoSABER (Figure 2a) display the vibrational stretching frequencies of alkyne and nitrile at 2121 and 2230 cm^−1, respectively. The ratio of alkyne/nitrile Raman peak intensity in the nanoSABER solutions was measured to be 0.21±0.04. Next, we studied the cleavage of the nanoSABER probe by legumain, leading to the formation of supramolecular self‐assembled nanoparticles. This was verified using high‐resolution matrix‐assisted laser desorption/ionization–time‐of‐flight mass spectrometry (MALDI), RS, and high‐performance liquid chromatography (HPLC). We first incubated 25 µM of nanoSABER probe with 250 µM GSH for 2 h at 37 °C. This reduced the disulfide bond of D‐cysteine, producing reduced nanoSABER, which was identified using HPLC and MALDI by the appearance of a peak at a retention time of 16.5 min (Figure 2b) and an observed mass of 1737.5 (Figure 2c). When nanoSABER was co‐incubated with 250 µM GSH and 3 µL (10 µg/50 µL) legumain enzyme for 3 h at 37 °C, the reduced nanoSABER that was generated in situ reacted with the legumain enzyme to form an active cleaved intermediate. The latter underwent intermolecular condensation to yield the alkyne‐dimer. […] Both HPLC fractions were collected and characterized by MALDI.
Figure 2 Optical and structural properties of nanoSABER (R6‐AAN‐alkyne‐nitrile) and alkyne‐dimer. a) Raman spectra of R6AAN‐alkyne and nanoSABER showing the alkyne and nitrile vibrational stretching frequency at 2121 cm^−1 and 2230 cm^−1, respectively, expressed as the mean ± standard deviation for n = 22 independent in vitro measurements. b) HPLC chromatogram of 250 µM nanoSABER (red) and 250 µM nanoSABER + 1 mM GSH incubated for 3 h (green), and 250 µM nanoSABER + 1 mM GSH + 3 µL (10 µg/50 µL) legumain incubated for 3 h (blue). c–e) HR‐MALDI‐TOF/MS spectra of reduced nanoSABER, cleaved R6‐AAN, and alkyne‐dimer. f) Raman spectra of 250 µM nanoSABER + 1 mM GSH + 3 µL (10 µg/50 µL) legumain incubated for 3 h, shown as the mean with a standard deviation of n = 22 independent in vitro measurements. g) Enzymatic conversion ratios of 250 µM nanoSABER in the presence of 1 mM GSH and 3 µL (10 µg/50 µL) legumain enzyme as a function of time, as calculated from the alkyne/nitrile Raman peak intensity ratio. h,i) TEM and DLS of alkyne‐dimer nanoparticles (red circles) after incubation of 250 µM nanoSABER + 1 mM GSH + 3 µL (10 µg/50 µL) legumain for 3 h at 37 °C. All subpanels reflect representative data from i n vitro experiments repeated three times unless stated.
To accurately evaluate the efficiency of the R6‐AAN‐alkyne‐nitrile nanoprobe, time‐dependent Raman measurements were performed (Figure 2g), where the ratio of alkyne/nitrile peak intensity was used as an indicator of the reaction progress. We found as the reaction progressed the alkyne/nitrile peak intensity increased from 0.22±0.01 to 4.4±0.12 and plateaued at a final value of 4.6±0.12 indicating almost complete conversion of nanoSABER to alkyne‐dimer within 3 h. […] To further get insight into the structural arrangements of the self‐assembled dimers, transmission electron microscopy (TEM) was performed. […]

- cleavage and condensation by legumain (HPLC retention time and MALDI mass) (250 µM + 1 mM GSH + 3 µL (10 µg/50 µL) legumain, 3 h): efficiently cleaved by legumain
- time to almost complete conversion to alkyne-dimer (250 µM nanoSABER + 1 mM GSH + 3 µL (10 µg/50 µL) legumain, from the alkyne/nitrile Raman ratio): ≤ 3 h
- alkyne/nitrile peak intensity ratio, start of reaction (250 µM nanoSABER + 1 mM GSH + 3 µL (10 µg/50 µL) legumain, time-dependent Raman, initial value): 0.22±0.01
- alkyne/nitrile peak intensity ratio, plateau final value (250 µM nanoSABER + 1 mM GSH + 3 µL (10 µg/50 µL) legumain, time-dependent Raman, plateau): 4.6±0.12
- alkyne/nitrile peak intensity ratio, as the reaction progressed (250 µM nanoSABER + 1 mM GSH + 3 µL (10 µg/50 µL) legumain, time-dependent Raman, value reached before plateau): 4.4±0.12
Substance: Ac‐Arg‐Arg‐Arg‐Arg‐Arg‐Arg‐Ala‐Ala‐Asn‐Cys(StBu)‐Pra‐Lys‐CBT [nanoSABER]
